Assay results published in patent US10407463B2, “Method for producing alpha-form crystal of reduced glutathione, and method for storing said crystal” (KYOWA HAKKO BIO CO., LTD., priority 2015, dated 2019).
Marks after values point to notes of the source that are not given here. Peptide text beside a SMILES is read from it.

Key:
[1] = Suppression of transition to β-form crystal by habit modifier in α-form crystal slurry (Example 1); type: physicochemical; settings: 0.45 g added to 9 g α-form crystals in 30 mL water; 25° C., 24 hr; microscopic observation
Method: α-Form crystals of reduced glutathione (9 g) and water (30 mL) were mixed in a glass bottle. […] The glass bottle was shaken in a tray dryer set to 25° C. for 24 hr.

[2] = not told
Excerpt: The crystals precipitated during stirring are observed under a microscope, and it is judged whether the crystals are all α-form crystals or development of β-form crystal or transition to β-form crystal has occurred. Since the shape of α-form crystal, which is a large columnar crystal, is markedly different from that of β-form crystal, which is a small needle crystal, they can easily be distinguished by microscopic observation. […] The permeability can be expressed by permeability (T %) 430 nm=100×10^−A (A=Abs: 430 nm, 1 cm). When β-form crystal having low solubility is present, the permeability of the solution is lowered since the crystals left undissolved are detected as turbidity. Since the development of β-form crystal causes crystallization and a lower concentration of reduced glutathione in the solution in the slurry than that of a solution containing α-form crystal alone, the kind of the coexisting crystals can also be distinguished by measuring the concentration of reduced glutathione in the mother liquor from which the coexisting crystals have been removed. The concentration of reduced glutathione in the mother liquor is measured by removing the coexisting crystals by filtration and the like, diluting same with mobile phase to a given concentration, maintaining with stirring for a sufficient time, and measuring the concentration under the following HPLC conditions.
After 3 hr, the crystals (each 1 g) were dissolved in water (10 mL) at 25° C., the permeability at 430 nm was measured, and the turbidity was confirmed to determine the presence or absence of transition to β-form crystal.

[3] = Concentration crystallization of reduced glutathione with 10 wt % habit modifier, production method (2) (Example 6); type: physicochemical; settings: 10 wt % added; concentrate cooled to 25° C., stirred 24 hr; microscopic observation
Method: (§1) Reduced glutathione (50 g) and water (500 mL) were added to a 1 L beaker. […] The prepared solution (filtrate) was concentrated by an evaporator such that the concentration of reduced glutathione was not less than the saturation solubility of α-form crystal to perform concentration crystallization of reduced glutathione.

[4] = Concentration crystallization of reduced glutathione with habit modifier, production method (1) (Example 5); type: physicochemical; settings: 2.5 g added to 50 g reduced glutathione; concentrate cooled to 25° C., stirred 24 hr; microscopic observation
Method: as §1

[5] = Amount of habit modifier needed to suppress β-form crystal development in aqueous reduced glutathione solution (Example 4); type: physicochemical; settings: 10° C.
Excerpt: The results of the elapsed time and changes in the concentration of reduced glutathione due to the presence or absence of a habit modifier are shown in Table 3.

[6] = at 10° C., in water
Excerpt: The crystal of reduced glutathione includes two kinds of crystal polymorphs of α-form crystal and β-form crystal (non-patent document 1). […] Therefore, the β-form crystal having low solubility is associated with problems that it is difficult to process as a raw material and cannot be handled with ease.

C[C@H](N)C(=O)N[C@@H](CS)C(=O)O [AlaCys, L-alanyl-L-cysteine] (H-Ala-Cys-OH)
transition of α-form crystal to β-form crystal [1]: suppression of the transition
permeability (%) [2]: 99%

O=C(O)[C@H]1CCCN1 [D-Pro, D-proline]
transition of α-form crystal to β-form crystal [1]: suppression of the transition

C[C@H](N)C(=O)O [L-Ala, L-alanine]
transition of α-form crystal to β-form crystal [1]: suppression of the transition
permeability (%) [2]: 100%
crystal form produced [3]: produced α-form crystal alone
crystal form produced [4]: produced α-form crystal alone
development of β-form crystal ([5]; 0.01 wt %-1 wt % added, 15 hr): suppressed development of β-form crystal
concentration (g/L) of reduced glutathione ([5]; amount added 0.01%, elapsed time 0 h): 94.2* g/L
concentration (g/L) of reduced glutathione ([5]; amount added 0.01%, elapsed time 15 h): 89.2* g/L
concentration (g/L) of reduced glutathione ([5]; amount added 0.1%, elapsed time 0 h): 94.2* g/L
concentration (g/L) of reduced glutathione ([5]; amount added 0.1%, elapsed time 15 h): 91.2* g/L
concentration (g/L) of reduced glutathione ([5]; amount added 1.0%, elapsed time 0 h): 94.2* g/L
concentration (g/L) of reduced glutathione ([5]; amount added 1.0%, elapsed time 15 h): 92.6* g/L

N[C@@H](CS)C(=O)O [L-Cys, L-cysteine]
transition of α-form crystal to β-form crystal [1]: suppression of the transition
permeability (%) [2]: 100%
crystal form produced [3]: produced α-form crystal alone
crystal form produced [4]: produced α-form crystal alone

Cl.N[C@@H](Cc1c[nH]cn1)C(=O)O [L-His, L-histidine hydrochloride, reference compound]
permeability (%) [2]: 95%

N[C@@H](Cc1ccccc1)C(=O)O [L-Phe, L-phenylalanine]
transition of α-form crystal to β-form crystal [1]: suppression of the transition
permeability (%) [2]: 100%

N[C@@H](Cc1c[nH]c2ccccc12)C(=O)O [L-Trp, L-tryptophan]
transition of α-form crystal to β-form crystal [1]: suppression of the transition
permeability (%) [2]: 99%

N[C@@H](CCC(=O)N[C@@H](CS)C(=O)NCC(=O)O)C(=O)O [α-form crystal, reduced glutathione]
saturated solubility [6]: 89 g/L

N[C@@H](CCC(=O)N[C@@H](CS)C(=O)NCC(=O)O)C(=O)O [β-form crystal, reduced glutathione]
saturated solubility [6]: 30 g/L
